In patent publication US10107816B2, “G-protein coupled receptor-associated diagnostics and therapeutics for B-cell chronic lymphocytic leukemia” (THE REGENTS OF THE UNIVERSITY OF CALIFORNIA, priority 2013, dated 2018):
“Also recorded” adds a separate entry of the source. Where no end group is shown, it is not given here.

B1: INSL3: peptide hormone insulin-like peptide 3, LGR8 agonist (peptide, UniProt P51460 21-55; P51460 106-131, looked up)
Insulin-like 3 B chain: LGPAPTPEMREKLCGHHFVRALVRVCGGPRWSTEA
Insulin-like 3 A chain: AAATNPARYCCLSGCTQQDLLTLCPY

Columns and labels:
[1] = test system: NK.tert bone marrow-derived stromal cells; test: Stromal cell proliferation ([3H] thymidine) with conditioned media from indolent CLL cultures; assay type: cell-based, human; details: conditioned media from indolent CLL cells incubated 24 hr with IR284 (100 nM) or VIP
Method: Mononuclear cells derived from the blood of Indolent CLL patients were grown in tissue culture media (RPMI 1640+10% Heat-Inactivated Fetal Bovine Serum) and incubated for 24 hr in the absence of any drug (“untreated CLL”), in the presence of the phosphodiesterase 4/7 inhibitor IR284 (100 nM) or the VIPR agonist VIP […]. In the 24 hr incubation period products excreted from the cells in response to the treatments accumulate in the media, which is called “conditioned media” (CM). CM was harvested from the cell cultures by subjecting them to centrifugation at 233 rcf for 10 minutes at 4° C. to pellet cells and debris. The liquid portion was removed and used as CM. To assess the impact of CM from the indolent CLL cultures upon the proliferation of bone marrow-derived stromal cells (which make up the supportive microenvironment of CLL in vivo), CM was added to NK.tert bone marrow-derived stromal cells along with [3H] thymidine to assess DNA synthesis/cell proliferation

CLL cells [2] = test: Assay of cellular apoptosis (annexin V/PI flow cytometry) in CLL cells; assay type: cell-based, human; details: for apoptosis in combination with IR284: with PDE inhibitor IR284 (100 nM), compared to IR284 alone
Method: (§1) FIG. 7 illustrates apoptosis of CLL cells (data from Aggressive and Indolent CLL cells), left panel, and normal B-cells (n=3), right panel, in response to 1 μM VIP+100 nM IR284. Statistical significance, determined by Student's t-test, is shown (*=P<0.05) compared to cells treated only with 100 nM IR284.
(§2) Cycle thresholds (lower value denotes higher expression) normalized to 28S. Statistical significance was determined by Student's t-test and is depicted by (***) for P<0.001 compared to normal. […] Statistical significance was determined by paired t test with (*) P<0.05 compared to IR284 alone.
(§3) Flow cytometry was used to detect annexin V/fluorescein isothiocyanate (FITC) and propidium iodide (PI) staining to determine the apoptotic population of treated cells. CLL-cells or normal PBMC (1,000,000/ml) in […]+10% FBS were incubated for 48 hr in standard culture conditions with or without drugs and then assayed for annexinV/PI staining per manufacturer's protocol using a FACScan (Becton Dickinson Biosciences, San Jose, Calif.) flow cytometer.

CLL cells [3] = test: cAMP accumulation assay (cAMP radioimmunoassay); assay type: cell-based, human; details: aggressive CLL cells (n=8); 1 μM VIP + 100 nM IR284, relative to 100 nM IR284 alone; P<0.05
Method: The results are expressed relative to cAMP levels in cells treated only with 100 nM IR284, a PDE4/7 inhibitor. Statistical significance was determined by paired t test and is shown (*=P<0.05) compared to cells treated only with IR284.
as §2
One million CLL-cells or normal PBMC/ml in […] buffer+10% FBS were plated in a 12-well cell culture plate and incubated for 20 min at 37° C. in air plus 5% CO2 with a dual PDE4/7 inhibitor (IR284). VIP or ACTH were then added to the 12-well culture plate and incubated for 10 min at 37° C. in air plus 5% CO2. The cells were then centrifuged at 1200 rpm for 5 min at 4° C. The media was aspirated and 50 μl of 7.5% trichloroacetic acid (TCA) was added to each cell pellet to release cAMP from the cells. The TCA-suspended sample was diluted in 1 ml 10 mM sodium acetate and acetylated with 20 ul triethylamine and 10 ul acetic anhydride. The competitive binding assay consists of 50 μl of diluted, acetylated sample, 25 μl AMP antibody and 25 μl ^125I-labeled cAMP (Perkin Elmer). […]

normal B-cells = test: Assay of cellular apoptosis (annexin V/PI flow cytometry) in normal B-cells; assay type: cell-based, human; details: normal B-cells (n=3)
Method: as §1, §3

male germ cell = details: in vivo; cited from earlier work
CLL cells [4] = test: Spontaneous apoptosis of CLL cells (Annexin V surface staining); assay type: cell-based, human
Excerpt: FIG. 12 illustrates that the peptide hormone insulin-like peptide 3 (INSL3) protects CLL cells from spontaneous apoptosis.

LGR8 [5] = biological target: T1, LGR8 (Homo sapiens, UniProt Q8WXD0); details: recombinant LGR8 in 293T cells; cited from earlier work
T1 construct: expressed in transfected cells; host or cells: 293T cells
T1 sequence (Q8WXD0 whole entry): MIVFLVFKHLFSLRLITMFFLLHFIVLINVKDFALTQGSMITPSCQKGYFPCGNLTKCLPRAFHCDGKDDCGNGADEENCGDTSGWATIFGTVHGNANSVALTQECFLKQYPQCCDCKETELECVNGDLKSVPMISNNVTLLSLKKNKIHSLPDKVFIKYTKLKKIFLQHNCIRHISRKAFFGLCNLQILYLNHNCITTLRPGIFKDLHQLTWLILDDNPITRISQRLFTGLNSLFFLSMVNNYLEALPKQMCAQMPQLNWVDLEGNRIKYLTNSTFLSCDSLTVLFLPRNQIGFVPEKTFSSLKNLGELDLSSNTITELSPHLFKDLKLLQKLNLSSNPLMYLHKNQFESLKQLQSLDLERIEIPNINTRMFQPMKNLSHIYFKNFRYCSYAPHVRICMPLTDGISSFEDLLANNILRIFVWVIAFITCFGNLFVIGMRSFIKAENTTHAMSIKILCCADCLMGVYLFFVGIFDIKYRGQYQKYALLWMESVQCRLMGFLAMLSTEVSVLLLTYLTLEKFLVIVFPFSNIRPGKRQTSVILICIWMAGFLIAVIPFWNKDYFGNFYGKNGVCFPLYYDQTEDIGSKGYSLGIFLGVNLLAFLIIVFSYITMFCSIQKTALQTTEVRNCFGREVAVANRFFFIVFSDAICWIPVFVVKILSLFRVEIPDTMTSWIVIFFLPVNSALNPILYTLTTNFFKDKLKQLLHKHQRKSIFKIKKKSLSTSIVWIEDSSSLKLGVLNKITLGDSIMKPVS

LGR8 [6] = details: germ cells; via inhibitory G protein Gi; cited from earlier work
[7] = test system: arrested oocytes in preovulatory follicles; details: in vitro and in vivo; cited from earlier work
[8] = indolent CLL cells, with or without VIP or ACTH, with a phosphodiesterase inhibitor

Row | Molecule | proliferation of stromal cells (DNA synthesis) [1] | apoptosis (CLL cells [2]; aggressive CLL cells, 48 hr) | apoptosis in combination with IR284 (CLL cells [2]; aggressive CLL cells) | apoptosis (CLL cells [2]; [8]) | other results
1 | COc1ccc(C2=NN(C3CCN(C(=O)N4CCOCC4)CC3)C(=O)C3CC=CCC23)cc1Cl (stereo not shown) [IR284, (4-(3-chloro-4-methoxyphenyl)-2-(1-morpholine-4-carbonyl)piperadin-4-yl)-4a, 5,8,8a-tetrahydrophthalazin-1(2H)-one] | suppressed proliferation | – | – | – | –
2 | ACTH: a melanocortin 2 receptor [MC2R] agonist, purchased from GenWay (SYSMEHFRWGKPVGKKRRPVKVYPNGAEDESAEAFPLEF; Corticotropin; UniProt P01189 138-176, looked up) | – | promote apoptosis | increase apoptosis | not indolent CLL | –
3 | VIP: vasoactive intestinal peptide receptor agonist, purchased from Tocris Bioscience (HSDAVFTDNYTRLRKQMAVKKYLNSILN; ends and bridges not checked; UniProt P01282 125-152, looked up) | suppressed proliferation | increases apoptosis; also recorded: promote apoptosis | significantly enhanced; also recorded: increase apoptosis | not indolent CLL | apoptosis (CLL cells [2]; CLL cells, P<0.05, n=3): induced apoptosis; cAMP accumulation (CLL cells [3]): significantly enhanced; apoptosis (normal B-cells): does not promote apoptosis
4 | B1 | – | – | – | – | male germ cell apoptosis (male germ cell): suppresses male germ cell apoptosis; protection from apoptosis (CLL cells [4]): protects CLL cells from programmed cell death; adenylyl cyclase activation / intracellular cAMP (LGR8 [5]): increases accumulation of intracellular cAMP; cAMP production (LGR8 [6]): decreases in cAMP production; meiotic progression of arrested oocytes [7]: initiates meiotic progression
